In brackets after ≈: the same amount, converted by molar mass.
Assays:
[1] = Assessment of solubility (McIlvaine buffers, 24 h shake, UPLC-UV); format: physicochemical; conditions: kinetic from dmso stock
Outline: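 Compounds from 10 mM DMSO stocks were shaken for 24 h at room temperature in McIlvaine buffers at pH 2.2, 4.5 and 6.8 (2.5% v/v DMSO final), then filtered. Filtrates were quantified by UPLC-UV at 254 nm against a 50:50 acetonitrile/water reference assumed fully dissolved, as a single determination.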

[2] = molecular target: T1, human soluble guanylate cyclase alpha 1 and beta 1 subunits (sGC) (Homo sapiens, UniProt Q02108+Q02153); experiment: sGC cellular activator assay (cGMP, HTRF); format: cell-based; conditions: CHO cells stably expressing human sGC alpha 1/beta 1, preincubated with 40 microM ODQ; cGMP readout; assay run with and without 50% human serum, Table 2 does not say which
T1 construct: expressed in transfected cells; host or cells: Chinese hamster ovary (CHO) cells, stably transfected
T1 sequence (Q02108 1-690): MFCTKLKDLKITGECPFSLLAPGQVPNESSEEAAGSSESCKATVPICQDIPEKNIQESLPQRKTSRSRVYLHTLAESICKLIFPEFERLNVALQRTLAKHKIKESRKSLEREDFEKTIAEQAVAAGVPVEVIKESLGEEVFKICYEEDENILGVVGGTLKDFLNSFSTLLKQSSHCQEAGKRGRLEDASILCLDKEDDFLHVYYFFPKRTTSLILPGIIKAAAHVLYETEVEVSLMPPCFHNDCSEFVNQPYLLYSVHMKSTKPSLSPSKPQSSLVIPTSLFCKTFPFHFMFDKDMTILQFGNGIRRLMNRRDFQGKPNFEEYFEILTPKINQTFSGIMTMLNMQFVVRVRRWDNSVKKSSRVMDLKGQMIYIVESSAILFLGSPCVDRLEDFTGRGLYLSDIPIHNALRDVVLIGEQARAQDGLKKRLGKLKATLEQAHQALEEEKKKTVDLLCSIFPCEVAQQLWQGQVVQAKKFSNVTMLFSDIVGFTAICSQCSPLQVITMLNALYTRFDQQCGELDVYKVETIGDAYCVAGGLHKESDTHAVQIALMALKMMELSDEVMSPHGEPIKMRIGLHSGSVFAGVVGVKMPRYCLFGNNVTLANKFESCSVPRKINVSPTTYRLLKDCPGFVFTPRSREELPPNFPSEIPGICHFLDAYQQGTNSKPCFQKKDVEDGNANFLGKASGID
T1 sequence (Q02153 1-619): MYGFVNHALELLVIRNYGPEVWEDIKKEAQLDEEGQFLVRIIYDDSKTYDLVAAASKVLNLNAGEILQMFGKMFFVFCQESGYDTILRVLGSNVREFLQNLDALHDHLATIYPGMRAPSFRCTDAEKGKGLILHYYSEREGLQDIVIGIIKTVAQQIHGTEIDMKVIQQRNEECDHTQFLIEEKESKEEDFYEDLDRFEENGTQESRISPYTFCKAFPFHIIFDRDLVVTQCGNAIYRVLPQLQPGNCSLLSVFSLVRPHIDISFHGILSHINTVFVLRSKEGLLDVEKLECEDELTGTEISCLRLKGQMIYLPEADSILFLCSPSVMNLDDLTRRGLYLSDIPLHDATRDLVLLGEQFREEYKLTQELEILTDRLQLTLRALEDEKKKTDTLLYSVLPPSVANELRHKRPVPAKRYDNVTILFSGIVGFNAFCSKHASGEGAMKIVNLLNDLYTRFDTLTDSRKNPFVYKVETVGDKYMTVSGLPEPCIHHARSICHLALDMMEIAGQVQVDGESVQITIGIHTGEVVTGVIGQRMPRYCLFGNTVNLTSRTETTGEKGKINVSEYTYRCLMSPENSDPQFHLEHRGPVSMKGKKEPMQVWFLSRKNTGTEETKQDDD
Outline: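 Heme-oxidized conditions: ODQ (40 microM, 1 h) pretreatment of CHO cells stably expressing human α1/β1 sGC, in buffer containing 0.1% BSA and IBMX.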

Row | Compound | solubility at 24 h ([1]; pH 2.2, aqueous buffer) [µg/mL] | solubility at 24 h ([1]; pH 4.5, aqueous buffer) [µg/mL] | solubility at 24 h ([1]; pH 6.8, aqueous buffer) [µg/mL] | EC50 [2] [nM]
1 | CCOc1c(C(=O)O)cnn1-c1cccc(-c2cccc(C)c2OCc2cc(C)c3c(c2)CCN([C@H]2CCCOC2)C3)n1 [Compound 197] | 110 (≈ 189 µM) | 83 (≈ 142 µM) | 79 (≈ 136 µM) | 19
2 | COc1c(C(=O)O)cnn1-c1cccc(-c2cccc(C)c2OCc2ccc3c(c2C)CCN(C[C@@H]2CCCCO2)C3)n1 [Compound 198] | 120 (≈ 206 µM) | 100 (≈ 172 µM) | 93 (≈ 160 µM) | 5.3
3 | COc1c(C(=O)O)cnn1-c1cccc(-c2cccc(C)c2OCc2ccc3c(c2C)CCN(C[C@H]2CCCCO2)C3)n1 [Compound 199] | 120 (≈ 206 µM) | 96 (≈ 165 µM) | 92 (≈ 158 µM) | 9
4 | CCOc1c(C(=O)O)cnn1-c1cccc(-c2cccc(C)c2OCc2cc(C)c3c(c2)CCN(CC2(C)COC2)C3)n1 [Compound 200] | 100 (≈ 172 µM) | 73 (≈ 125 µM) | 73 (≈ 125 µM) | 20
5 | COc1c(C(=O)O)cnn1-c1cccc(-c2cccc(C)c2OCc2cc(F)c3c(c2)CCN(C2CCOCC2)C3)n1 [Compound 201] | 87 (≈ 152 µM) | 68 (≈ 119 µM) | 66 (≈ 115 µM) | 12
6 | COc1c(C(=O)O)cnn1-c1cccc(-c2cccc(C)c2OCc2ccc3c(c2C)CCN(C[C@H]2COCCO2)CC3)n1 [Compound 203] | 81 (≈ 135 µM) | 70 (≈ 117 µM) | 72 (≈ 120 µM) | 4.4
7 | COc1c(C(=O)O)cnn1-c1cccc(-c2cccc(C)c2OCc2ccc3c(c2C)CCN(C[C@@H]2COCCO2)CC3)n1 [Compound 204] | 82 (≈ 137 µM) | 72 (≈ 120 µM) | 73 (≈ 122 µM) | 4.5
8 | COc1c(C(=O)O)cnn1-c1cccc(-c2cccc(C)c2OCc2ccc3c(c2C)CCN([C@@H]2CCOC2)CC3)n1 [Compound 207] | 82 (≈ 144 µM) | 68 (≈ 120 µM) | 73 (≈ 128 µM) | 9.2
9 | CCOc1c(C(=O)O)cnn1-c1cccc(-c2cccc(C)c2OCc2ccc3c(c2C)CCN(CC2(F)COC2)C3)n1 [Compound 208] | 82 (≈ 140 µM) | 47 (≈ 80.1 µM) | 57 (≈ 97.2 µM) | 20
10 | COc1c(C(=O)O)cnn1-c1cccc(-c2ccccc2OCc2ccc3c(c2)CCN(C2CCOCC2)C3)n1 [Compound 209] | 110 (≈ 203 µM) | 81 (≈ 150 µM) | 84 (≈ 155 µM) | 200
11 | CCOc1c(C(=O)O)cnn1-c1cccc(-c2cccc(C)c2OCc2cc(C)c3c(c2)CCN(C(C)COC)C3)n1 (centres unmarked) [Compound 210] | 110 (≈ 193 µM) | 87 (≈ 152 µM) | 87 (≈ 152 µM) | 19
12 | CCOc1c(C(=O)O)cnn1-c1cccc(-c2cccc(C)c2OCc2ccc3c(c2C)CCN(C[C@@H]2COCCO2)CC3)n1 [Compound 211] | 95 (≈ 155 µM) | 82 (≈ 134 µM) | 78 (≈ 127 µM) | 30
13 | CCOc1c(C(=O)O)cnn1-c1cccc(-c2cccc(C)c2OCc2ccc3c(c2C)CCN(C[C@H]2COCCO2)CC3)n1 [Compound 212] | 92 (≈ 150 µM) | 79 (≈ 129 µM) | 75 (≈ 122 µM) | 36
14 | CCOc1c(C(=O)O)cnn1-c1cccc(-c2cccc(C)c2OCc2ccc3c(c2)CCN(C2COC2)CC3)n1 [Compound 213] | 85 (≈ 153 µM) | 66 (≈ 119 µM) | 72 (≈ 130 µM) | 39
15 | CCOc1c(C(=O)O)cnn1-c1cccc(-c2cccc(C)c2OCc2ccc3c(c2C)CCN(C[C@H]2CCCCO2)CC3)n1 [Compound 214] | 81 (≈ 133 µM) | 64 (≈ 105 µM) | 69 (≈ 113 µM) | 30
16 | CCOc1c(C(=O)O)cnn1-c1cccc(-c2cccc(C)c2OCc2ccc3c(c2C)CCN(C[C@@H]2CCCCO2)CC3)n1 [Compound 215] | 86 (≈ 141 µM) | 70 (≈ 115 µM) | 76 (≈ 124 µM) | 37
17 | COc1c(C(=O)O)cnn1-c1cccc(-c2cccc(C)c2OCc2ccc3c(c2)C(C)(C)CN(C2CCOC2)C3)n1 (centres unmarked) [Compound 217] | 97 (≈ 171 µM) | 73 (≈ 128 µM) | 69 (≈ 121 µM) | 35
18 | COc1c(C(=O)O)cnn1-c1cccc(-c2cccc(C)c2OCc2ccc3c(c2)C(C)(C)CN(C2CCCOC2)C3)n1 (centres unmarked) [Compound 218] | 120 (≈ 206 µM) | 85 (≈ 146 µM) | 75 (≈ 129 µM) | 62
19 | COc1c(C(=O)O)cnn1-c1cccc(-c2cccc(C)c2OCc2ccc3c(c2)C(C)(C)CN(CC2COCCO2)C3)n1 (centres unmarked) [Compound 219] | 110 (≈ 184 µM) | 76 (≈ 127 µM) | 74 (≈ 124 µM) | 140
20 | CCOc1c(C(=O)O)cnn1-c1cccc(-c2cccc(C)c2OCc2ccc3c(c2OC)CCN(C2CCOCC2)C3)n1 [Compound 220] | 100 (≈ 167 µM) | 77 (≈ 129 µM) | 86 (≈ 144 µM) | 150
21 | CCOc1c(C(=O)O)cnn1-c1cccc(-c2cccc(C)c2OCc2ccc3c(c2OC)CCN(C2COC2)C3)n1 [Compound 221] | 100 (≈ 175 µM) | 72 (≈ 126 µM) | 94 (≈ 165 µM) | 210
22 | COc1c(C(=O)O)cnn1-c1cccc(-c2cccc(C)c2OCc2ccc3c(c2C)CCN(C[C@H]2CCCO2)CC3)n1 [Compound 222] | 85 (≈ 146 µM) | 71 (≈ 122 µM) | 73 (≈ 125 µM) | 5.4
23 | COc1c(C(=O)O)cnn1-c1cccc(-c2cccc(C)c2OCc2ccc3c(c2C)CCN(C[C@@H]2CCCO2)CC3)n1 [Compound 223] | 81 (≈ 139 µM) | 68 (≈ 117 µM) | 69 (≈ 118 µM) | 8.5
24 | CCOc1c(C(=O)O)cnn1-c1cccc(-c2cccc(C)c2OCc2ccc3c(c2C)CCN([C@H]2CCOC2)CC3)n1 [Compound 225] | 95 (≈ 163 µM) | 78 (≈ 134 µM) | 81 (≈ 139 µM) | 10
25 | CCOc1c(C(=O)O)cnn1-c1cccc(-c2cccc(C)c2OCc2ccc3c(c2C)CCN(C[C@H]2CCO2)CC3)n1 [Compound 226] | 98 (≈ 168 µM) | 83 (≈ 142 µM) | 86 (≈ 148 µM) | 12
26 | CCOc1c(C(=O)O)cnn1-c1cccc(-c2cccc(C)c2OCc2ccc3c(c2C)CCN([C@@H]2CCOC2)CC3)n1 [Compound 227] | 90 (≈ 154 µM) | 73 (≈ 125 µM) | 77 (≈ 132 µM) | 13
27 | CCOc1c(C(=O)O)cnn1-c1cccc(-c2cccc(C)c2OCc2ccc3c(c2C)CCN(C[C@@H]2CCO2)CC3)n1 [Compound 228] | 96 (≈ 165 µM) | 78 (≈ 134 µM) | 81 (≈ 139 µM) | 14
28 | COc1c(C(=O)O)cnn1-c1cccc(-c2cccc(C)c2OCc2cc(F)c3c(c2)CCN(C[C@H]2CCCCO2)C3)n1 [Compound 229] | 100 (≈ 170 µM) | 81 (≈ 138 µM) | 73 (≈ 124 µM) | 3.9
29 | COc1c(C(=O)O)cnn1-c1cccc(-c2cccc(C)c2OCc2ccc3c(c2F)CCN(C[C@@H]2COCCO2)C3)n1 [Compound 231] | 120 (≈ 204 µM) | 92 (≈ 156 µM) | 87 (≈ 148 µM) | 4.6
